One test has as its target T1, β1-receptor (Cavia porcellus, UniProt H0W3H1).
T1 construct: isolated guinea pig atrial preparations; from tissue; host or cells: guinea pig atria
The test can be described thus: in vitro β-adrenergic blocking activity: inhibition of positive chronotropic actions of isoproterenol in isolated guinea pig atrial preparations. The following applies: vs isoproterenol, read-out: β1 pA2 (converted). The protocol:
(§1) Expressed in different terms, a smaller amount of a compound of the invention is required to block isoproterenol-induced elevation in heart rate than is required to block the isoproterenol-induced relaxation of the bronchi. […] Med. Chem., 26, 956-7 (1983) pursuant to which in vitro β-adrenergic blocking activity is determined by the interaction with β1 -receptor via inhibition of the positive chronotropic actions of isoproterenol in isolated guinea pig atrial preparations. β2 potency is determined by using isolated guinea pig tracheal chains contracted with PGF2α and by measuring inhibition of isopreterenol-induced relaxation.

Test [1] has as its target T2, β2 (Cavia porcellus, UniProt Q8K4Z4).
T2 construct: isolated guinea pig tracheal chains; from tissue; host or cells: guinea pig trachea
The test can be described thus: β2 potency: inhibition of isoproterenol-induced relaxation of isolated guinea pig tracheal chains contracted with PGF2α. To be noted: isolated guinea pig tracheal chains contracted with PGF2α, vs isoproterenol, in vitro; for Kb: read-out: β2 pA2 (converted). The protocol:
as §1

Test [2] concerns β2. The test is described as above. To be noted: ratio of ED50 for pulmonary effect (β2) : ED50 for cardiac effect (β1); over 1 = cardioselective. How it is done:
as §1

T2 sequence (Q8K4Z4 whole entry): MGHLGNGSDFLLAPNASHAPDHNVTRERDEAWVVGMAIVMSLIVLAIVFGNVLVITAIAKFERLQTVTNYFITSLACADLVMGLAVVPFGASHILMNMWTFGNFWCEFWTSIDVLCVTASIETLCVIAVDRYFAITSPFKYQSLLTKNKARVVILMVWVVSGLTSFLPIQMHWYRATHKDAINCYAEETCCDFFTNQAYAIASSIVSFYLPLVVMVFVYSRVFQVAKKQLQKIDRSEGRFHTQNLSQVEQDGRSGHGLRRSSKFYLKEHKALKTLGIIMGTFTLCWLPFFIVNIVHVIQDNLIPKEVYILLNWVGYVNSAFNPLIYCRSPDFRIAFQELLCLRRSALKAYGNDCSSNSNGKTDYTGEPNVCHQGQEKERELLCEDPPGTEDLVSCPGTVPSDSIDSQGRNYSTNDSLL
T1 sequence (H0W3H1 1-470): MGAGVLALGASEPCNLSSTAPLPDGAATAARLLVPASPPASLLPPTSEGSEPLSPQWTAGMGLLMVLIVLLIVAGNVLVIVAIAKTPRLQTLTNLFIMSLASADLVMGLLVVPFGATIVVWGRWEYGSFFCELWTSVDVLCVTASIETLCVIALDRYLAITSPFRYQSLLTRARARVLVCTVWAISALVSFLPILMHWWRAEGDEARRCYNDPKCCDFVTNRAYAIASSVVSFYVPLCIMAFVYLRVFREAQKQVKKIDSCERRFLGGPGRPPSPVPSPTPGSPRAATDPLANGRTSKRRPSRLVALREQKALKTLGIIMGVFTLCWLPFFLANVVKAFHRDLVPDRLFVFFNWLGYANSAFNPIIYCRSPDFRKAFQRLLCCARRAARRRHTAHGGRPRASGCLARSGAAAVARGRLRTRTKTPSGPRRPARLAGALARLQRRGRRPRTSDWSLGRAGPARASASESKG

On to `COc1ccc(CCNCC(O)COc2ccc(-c3ncco3)cc2)cc1OC` (stereo not drawn) [Example 1, 2-{p-[3-(3,4-Dimethoxyphenethylamino)-2-hydroxypropoxy]phenyl}oxazole], for which, on β1-receptor, the Kb was 1120 nM. Further, the “β2 pA2” value at β2 [1] is recorded as 4.67. For the same compound, the “β2:β1 ratio (cardioselectivity)” value in the test on β2 [2] worked out at 19.

With `COc1ccc(CCNC[C@H](O)COc2ccc(-c3nccs3)cc2)cc1OC` [Example 2, (S) 2-{p-[3-(3,4-Dimethoxyphenylethyl)amino-2-hydroxypropoxy]phenyl}thiazole], the Kb at β1-receptor is 58.9 nM; on β2 [1] it was 47900 nM. Besides, the “β2:β1 ratio (cardioselectivity)” value in the test with β2 [2] is on record as 813.

Regarding `OC(CNC1CC1)COc1ccc(-c2nccs2)cc1` (stereo not drawn) [Example 3, 2-[p-(3-Cyclopropylamino-2-hydroxypropoxy)phenyl]thiazole], the figures for the Kb on β1-receptor and at β2 [1] were 2340 nM and 200000 nM, respectively. The “β2:β1 ratio (cardioselectivity)” value in the test on β2 [2] was found to be 85.

These data come from patent US4574127A, “Oxazoles and thiazoles containing an aminohydroxypropoxyphenyl moiety” (Merck & Co., Inc., priority 1984, dated 1986).
